Converted amounts (≈) assume the structure as drawn. Like-named read-outs stand apart in the source and are kept apart here.
Key:
[1] = system: E. coli strain 25922; assay: MIC by broth microdilution, E. coli strain 25922; type: cell-based
Procedure: (§1) Bacterial isolates were cultivated from −70° C. frozen stocks by two consecutive overnight passages at 35° C. in ambient air on 5% blood agar (Remel, Lenexa, Kans.). Quality control and P. aeruginosa ATCC 27853) is from the American Type Culture Collection (ATCC; Rockville, Md.) and PAO1 was received from Dr. K. Poole.
Minimal Inhibitory Concentrations (MICs) were determined by the broth microdilution method in accordance with Clinical and Laboratories Institute (CLSI) guidelines. In brief, fresh overnight bacterial cultures were suspended in sterile saline, and adjusted to a 0.5 McFarland turbidity standard. Bacterial suspensions were then diluted in cation adjusted Mueller-Hinton Broth (MHB II; BBL) to yield a final inoculum of approximately 5×10^5 colony-forming units (CFU)/mL. A master plate of antibiotics was prepared at a concentration equivalent to hundred-fold the highest desired final concentration in 100% dimethyl sulfoxide (DMSO). The master antibiotic plate was then diluted by serial twofold dilution with a multichannel pipette. The resulting dilution series of compounds were diluted 1:10 with sterile water leading to a 10% DMSO final concentration. A volume of 10 μL of the drug dilution series was transferred to 96-well assay plates. Assay plates were inoculated with 90 μL of bacterial suspensions and incubated at 35-37° C. for 20 hrs. The assay plates were read using a microtiter plate reader (Molecular Devices) at 600 nm as well as by visual observation with a reading mirror. The lowest concentration of the compound that prevented visible growth was recorded as the MIC. Performance of the assay was monitored by testing aztreonam against laboratory quality control strains in accordance with guidelines of the CLSI.

[2] = system: E. coli containing KPC-2; assay: MIC by broth microdilution, E. coli containing KPC-2 (Ec KPC2 Iso); type: cell-based; conditions: Escherichia coli, read-out: Ec KPC2 Iso (MIC), E. coli containing KPC-2 (carbapenemase from Klebsiella pneumoniae)
Procedure: as §1
Strain NB27273 (BW25113 pspB::Km^r) was obtained from the Keio transposon insertion collection. The strain has the pspB gene replaced by a kanamycin resistance marker (BW25113 pspB::Km^r). This strain was cured of the transposon in pspB via FLP recombinase using published methodology. The resulting strain, BW25113 pspB, was used as a host for multicopy vectors expressing key β-lactamases. Multicopy plasmids directing constitutive expression of β-lactamases were established as follows: Synthetic, codon optimized genes encoding E. coli KPC2 and SHV12 β-lactamases were made by DNA2.0 (Palo Alto, Calif.). Each of the synthetic fragments were designed to contain NotI and NcoI restriction sites at their termini, allowing ligation into a NotI/NcoI digested pET28a(+) derivative for protein expression. […] The codon optimized nucleotide sequences and relevant primer recognition information is shown below:
The PCR products were then digested with XhoI and EcoRI and ligated into similarly digested plasmid pAH63-pstS(BlaP). Plasmid pAH63-pstS(BlaP) is a derivative of plasmid pAH63 (J Bacteriol: 183(21): 6384-6393) made by cloning the TEM-1 (bla) promoter and signal peptide encoding region from plasmid pBAD (J Bacteriol. 1995 July 177(14):4121-30) into plasmid pAH63. This fragment was PCR amplified from pBAD using primer pair E192 (ttca[…]) (SEQ ID NO:13) and E194 ([…]) (SEQ ID NO:14), digested with PstI and BamHI and inserted into similarly digested plasmid pAH63. Therefore, expression of β-lactamases from pAH63-pstS(BlaP) based constructs is constitutive and the signal sequence is provided to direct these proteins to the periplasm. Plasmid pAH63 based vectors are used for insertion into the genome in single copy, however, to provide higher expression levels to allow more sensitive detection of the susceptibility of compounds to the β-lactamases, the expression inserts contained in these vectors were moved to the replicative multicopy vector pBAD-Kan (J Bacteriol. 1995 July 177(14):4121-30). To accomplish this, the inserts encompassing the β-lactamase genes, with the associated TEM promoter and signal sequences, were PCR amplified from their corresponding vectors using primer E269 (ccg[…]) (SEQ ID NO:15) and E202 (aatc[…]) (SEQ ID NO:16) for the KPC2 construct and E204 (aatc[…]) (SEQ ID NO:17) for the SHV12 construct. These fragments were then digested with XbaI and EcoRI, and each was inserted into pBAD18-kan that had been digested with the same enzymes to generate a pair of multicopy vectors expressing KPC2 and SHV12 respectively. These vectors were transformed into BW25113 pspB to generate strains NB27273-CDY0033 (expressing KPC2) and NB27273-CDY0030 (expressing SHV12). The pBAD18-kan vector also contains the TEM promoter region and signal sequence, (but lacks any intact β-lactamase genes) and was transformed into BW25113 pspB using standard protocols to generate the control strain NB27273-CDY0026. Expression of the β-lactamases was confirmed by verifying decreased susceptibility to example test antibiotics that are known substrates of KPC2 or SHV12. Susceptibility Testing
Minimal Inhibitory Concentrations (MICs) were determined by the broth microdilution method in accordance with Clinical and Laboratories Institute (CLSI) guidelines. In brief, fresh overnight bacterial cultures were suspended in sterile saline, and adjusted to a 0.5 McFarland turbidity standard. Bacterial suspensions were then diluted in cation adjusted Mueller-Hinton Broth (MHB II; BBL) to yield a final inoculum of approximately 5×10^5 colony-forming units (CFU)/mL. […]

[3] = Escherichia coli, 25922, E. coli strain 25922, read-out: Ec 25922 (MIC)

| Compound | MIC [1, 3] [mg/L] | MIC [2] [mg/L] | MIC ([1]; Escherichia coli, 25922, read-out: Ec 25922 (MIC)) [mg/L] |
| --- | --- | --- | --- |
| N=C(NCc1cnn(C[C@@H]2[C@H](NC(=O)/C(=N\OC3(C(=O)O)CC3)c3csc(N)n3)C(=O)N2S(=O)(=O)O)n1)N[C@@H]1CCNC1 (stereo in doubt) [Example 142, 1-(((Z)-(1-(2-aminothiazol-4-yl)-2-oxo-2-(((3S,4R)-2-oxo-4-((4-((3-(®-pyrrolidin-3-yl)guanidino)methyl)-2H-1,2,3-triazol-2-yl)methyl)-1-sulfoazetidin-3-yl)amino)ethylidene)amino)oxy)cyclopropanecarboxylic acid] | 0.5 (≈ 0.78 µM) | 0.25 (≈ 0.39 µM) | – |
| CC(C)(O/N=C(\C(=O)N[C@@H]1C(=O)N(S(=O)(=O)O)[C@@H]1CN1CCOC1=O)c1csc(N)n1)C(=O)O [Example 2, 2-(((Z)-(1-(2-aminothiazol-4-yl)-2-oxo-2-(((3S,4R)-2-oxo-4-((2-oxooxazolidin-3-yl)methyl)-1-sulfoazetidin-3-yl)amino)ethylidene)amino)oxy)-2-methylpropanoic acid] | 1 (≈ 1.92 µM) | 0.5 (≈ 0.961 µM) | – |
| CC(C)(O/N=C(\C(=O)N[C@@H]1C(=O)N(S(=O)(=O)O)[C@@H]1CN1CCNC1=O)c1csc(N)n1)C(=O)O [Example 3, 2-(((Z)-(1-(2-aminothiazol-4-yl)-2-oxo-2-(((3S,4R)-2-oxo-4-((2-oxoimidazolidin-1-yl)methyl)-1-sulfoazetidin-3-yl)amino)ethylidene)amino)oxy)-2-methylpropanoic acid] | 2 (≈ 3.85 µM) | 1 (≈ 1.92 µM) | – |
| CC(C)(O/N=C(\C(=O)N[C@@H]1C(=O)N(S(=O)(=O)O)[C@@H]1Cn1nnc(CNC(=N)N)n1)c1csc(N)n1)C(=O)O [Example 5, 2-(((Z)-(1-(2-aminothiazol-4-yl)-2-(((2R,3S)-2-((5-(guanidinomethyl)-2H-tetrazol-2-yl)methyl)-4-oxo-1-sulfoazetidin-3-yl)amino)-2-oxoethylidene)amino)oxy)-2-methylpropanoic acid] | 1 (≈ 1.74 µM) | 4 (≈ 6.96 µM) | – |
| CC(C)(O/N=C(\C(=O)N[C@@H]1C(=O)N(S(=O)(=O)O)[C@@H]1Cn1nnnc1CN)c1csc(N)n1)C(=O)O [Example 6, 2-(((Z)-(2-(((2R,3S)-2-((5-(aminomethyl)-1H-tetrazol-1-yl)methyl)-4-oxo-1-sulfoazetidin-3-yl)amino)-1-(2-aminothiazol-4-yl)-2-oxoethylidene)amino)oxy)-2-methylpropanoic acid] | 4 (≈ 7.51 µM) | 1 (≈ 1.88 µM) | – |
| Cc1nnnn1C[C@@H]1[C@H](NC(=O)/C(=N\OC(C)(C)C(=O)O)c2csc(N)n2)C(=O)N1S(=O)(=O)O [Example 8, 2-(((Z)-(1-(2-aminothiazol-4-yl)-2-(((2R,3S)-2-((5-methyl-1H-tetrazol-1-yl)methyl)-4-oxo-1-sulfoazetidin-3-yl)amino)-2-oxoethylidene)amino)oxy)-2-methylpropanoic acid] | 2 (≈ 3.86 µM) | 2 (≈ 3.86 µM) | – |
| CC(C)(O/N=C(\C(=O)N[C@@H]1C(=O)N(S(=O)(=O)O)[C@@H]1Cn1cncn1)c1csc(N)n1)C(=O)O [Example 9, 2-(((Z)-(2-(((2R,3S)-2-((1H-1,2,4-triazol-1-yl)methyl)-4-oxo-1-sulfoazetidin-3-yl)amino)-1-(2-aminothiazol-4-yl)-2-oxoethylidene)amino)oxy)-2-methylpropanoic acid] | 1 (≈ 1.99 µM) | 1 (≈ 1.99 µM) | – |
| CC(C)(O/N=C(\C(=O)N[C@@H]1C(=O)N(S(=O)(=O)O)[C@@H]1Cn1cnc(CN)n1)c1csc(N)n1)C(=O)O [Example 10, 2-(((Z)-(2-(((2R,3S)-2-((3-(aminomethyl)-1H-1,2,4-triazol-1-yl)methyl)-4-oxo-1-sulfoazetidin-3-yl)amino)-1-(2-aminothiazol-4-yl)-2-oxoethylidene)amino)oxy)-2-methylpropanoic acid] | 4 (≈ 7.53 µM) | 11 (≈ 20.7 µM) | – |
| CC(C)(O/N=C(\C(=O)N[C@@H]1C(=O)N(S(=O)(=O)O)[C@@H]1Cn1cnc(CNC(=N)N)n1)c1csc(N)n1)C(=O)O [Example 11, 2-(((Z)-(1-(2-aminothiazol-4-yl)-2-(((2R,3S)-2-((3-(guanidinomethyl)-1H-1,2,4-triazol-1-yl)methyl)-4-oxo-1-sulfoazetidin-3-yl)amino)-2-oxoethylidene)amino)oxy)-2-methylpropanoic acid] | 4 (≈ 6.97 µM) | 4 (≈ 6.97 µM) | – |
| CC(C)(O/N=C(\C(=O)N[C@@H]1C(=O)N(S(=O)(=O)O)[C@@H]1Cn1ncnc1CN)c1csc(N)n1)C(=O)O [Example 12, 2-(((Z)-(2-(((2R,3S)-2-((5-(aminomethyl)-1H-1,2,4-triazol-1-yl)methyl)-4-oxo-1-sulfoazetidin-3-yl)amino)-1-(2-aminothiazol-4-yl)-2-oxoethylidene)amino)oxy)-2-methylpropanoic acid] | 4 (≈ 7.53 µM) | 4 (≈ 7.53 µM) | – |
| CC(C)(O/N=C(\C(=O)N[C@@H]1C(=O)N(S(=O)(=O)O)[C@@H]1Cn1ncnc1CNC(=N)N)c1csc(N)n1)C(=O)O [Example 13, 2-(((Z)-(1-(2-aminothiazol-4-yl)-2-(((2R,3S)-2-((5-(guanidinomethyl)-1H-1,2,4-triazol-1-yl)methyl)-4-oxo-1-sulfoazetidin-3-yl)amino)-2-oxoethylidene)amino)oxy)-2-methylpropanoic acid] | 16 (≈ 27.9 µM) | 32 (≈ 55.8 µM) | – |
| CC(C)(O/N=C(\C(=O)N[C@@H]1C(=O)N(S(=O)(=O)O)[C@@H]1CN1CCCCC1=O)c1csc(N)n1)C(=O)O [Example 14, 2-(((Z)-(1-(2-aminothiazol-4-yl)-2-oxo-2-(((3S,4R)-2-oxo-4-((2-oxopiperidin-1-yl)methyl)-1-sulfoazetidin-3-yl)amino)ethylidene)amino)oxy)-2-methylpropanoic acid] | 16 (≈ 30 µM) | 8 (≈ 15 µM) | – |
| Nc1nc(/C(=N/OC2(C(=O)O)CC2)C(=O)N[C@@H]2C(=O)N(S(=O)(=O)O)[C@@H]2Cn2ncc(CNC3CNC3)n2)cs1 [Example 103, 1-(((Z)-(1-(2-aminothiazol-4-yl)-2-(((2R,3S)-2-((4-((azetidin-3-ylamino)methyl)-2H-1,2,3-triazol-2-yl)methyl)-4-oxo-1-sulfoazetidin-3-yl)amino)-2-oxoethylidene)amino)oxy)cyclopropanecarboxylic acid] | 0.25 (≈ 0.428 µM) | – | – |
| NCC1CN(C[C@@H]2[C@H](NC(=O)/C(=N\OC3(C(=O)O)CC3)c3csc(N)n3)C(=O)N2S(=O)(=O)O)C(=O)N1 (stereo partly drawn) [Example 122, 1-(((Z)-(2-(((2R,3S)-2-((4-(aminomethyl)-2-oxoimidazolidin-1-yl)methyl)-4-oxo-1-sulfoazetidin-3-yl)amino)-1-(2-aminothiazol-4-yl)-2-oxoethylidene)amino)oxy)cyclopropanecarboxylic acid] | ≤ 0.06 | – | 0.125 (≈ 0.229 µM) |
